This passage reports TGI results from PubChem BioAssay (NCI).

Test systems include SNB-19 CNS; TK-10 renal; NCI-H23 lung; OVCAR-4 ovarian; SK-OV-3 ovarian; HCT-15 colon; IGROV1 ovarian; UO-31 renal; SR leukemia; MDA-N; HCC-2998 colon.
Holding throughout (assay): NCI anticancer screen, dose series, 48 h

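Interpolation was linear, between the two tested concentrations surrounding the appropriate level; five concentrations were tested over 48 hours in 96-well plates. TGI: total growth inhibition.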

With `CC(C)NCCNC(=O)c1ccccc1Nc1c(Cl)cccc1Cl`, the TGI in the assay on SNB-19 CNS is 30 µM; with TK-10 renal it was 24 µM; with NCI-H23 lung it was 32 µM; in the assay on OVCAR-4 ovarian it was 30.3 µM; in the assay on SK-OV-3 ovarian it was 28 µM; in the assay with HCT-15 colon, 26.5 µM. Further, the TGI came to 30.7 µM with IGROV1 ovarian, 21.8 µM in the assay on UO-31 renal and 26.8 µM in the assay with SR leukemia.

Regarding `N#CC(NNC(=O)c1ccccc1O)c1ccc(O)cc1` (centres undefined), the TGI in the assay on TK-10 renal, with NCI-H23 lung, in the assay on OVCAR-4 ovarian, in the assay with SK-OV-3 ovarian, in the assay on HCT-15 colon and in the assay on IGROV1 ovarian was over 100 µM throughout. The TGI with UO-31 renal was 11.9 µM; in the assay with SR leukemia it was over 100 µM.

For the compound `Oc1ccc(O)c(Sc2nnc(CCCCCCCCc3nnc(Sc4cc(O)ccc4O)o3)o2)c1`, the TGI in the assay on SNB-19 CNS was over 100 µM; in the assay with TK-10 renal, over 100 µM; with NCI-H23 lung it was over 100 µM; in the assay on OVCAR-4 ovarian, over 100 µM; in the assay on MDA-N, 32.9 µM; in the assay with SK-OV-3 ovarian, over 100 µM. Further, the TGI in the assay on HCC-2998 colon is over 100 µM; in the assay with HCT-15 colon it was over 100 µM; in the assay on IGROV1 ovarian, over 100 µM; with UO-31 renal, 32 µM.

As to `C/C(=C\COP(=O)(O)OP(=O)(O)O)CC/C=C(\C)CNc1ccccc1`, the TGI in the assay on SNB-19 CNS, in the assay on TK-10 renal, in the assay with SK-OV-3 ovarian, with HCT-15 colon, in the assay on IGROV1 ovarian and in the assay on UO-31 renal was over 50 µM in each case.

As to `COc1cccc(OC/C(N=Cc2ccncc2)=N/NC(=O)c2ccncc2)c1`, the TGI with SNB-19 CNS, in the assay with TK-10 renal, in the assay with NCI-H23 lung, in the assay with OVCAR-4 ovarian, in the assay with MDA-N and with SK-OV-3 ovarian was over 100 µM throughout. Besides, the TGI in the assay on HCC-2998 colon, in the assay on HCT-15 colon and in the assay on IGROV1 ovarian was over 100 µM in each case.

Turning to `O=c1[nH]nc(N/N=C\c2ccc(Cl)cc2)c2ccccc12`, the TGI in the assay on SNB-19 CNS was 43.1 µM; in the assay with TK-10 renal, 54.4 µM; in the assay with NCI-H23 lung it was 40.1 µM; in the assay with OVCAR-4 ovarian, over 100 µM; in the assay with SK-OV-3 ovarian, 34.6 µM; in the assay on HCT-15 colon, 34.9 µM. For the same compound, the TGI was determined as 37.2 µM in the assay with IGROV1 ovarian, 38.7 µM with UO-31 renal and 58.2 µM in the assay on SR leukemia.

Take `CCOc1ccccc1N=NC1C(=O)N(C(=O)CC(=O)Nc2ccccc2OC)N=C1C` (centres undefined): the TGI was over 100 µM in the assay with TK-10 renal; over 100 µM with NCI-H23 lung; over 100 µM in the assay with OVCAR-4 ovarian; over 100 µM with MDA-N; 94.3 µM with SK-OV-3 ovarian; over 100 µM with HCC-2998 colon. For the same compound, the TGI in the assay on HCT-15 colon was 79.8 µM; in the assay with IGROV1 ovarian, over 100 µM; in the assay on UO-31 renal it was 68.2 µM.

With `COc1ccccc1NC(=O)CSC(N)=O`, the TGI in the assay with SNB-19 CNS, in the assay on TK-10 renal, in the assay on NCI-H23 lung, in the assay on OVCAR-4 ovarian, in the assay on SK-OV-3 ovarian and with HCC-2998 colon was over 100 µM each time. The TGI in the assay with HCT-15 colon, with IGROV1 ovarian and in the assay with SR leukemia was over 100 µM throughout.

As to `Cc1ccc(Cl)c2c(=O)cc(-c3ccccc3)[nH]c12`, the TGI in the assay with TK-10 renal, in the assay with NCI-H23 lung, in the assay on OVCAR-4 ovarian, in the assay with SK-OV-3 ovarian, with HCT-15 colon and with IGROV1 ovarian was over 100 µM each time. Moreover, the TGI in the assay with UO-31 renal and in the assay with SR leukemia was over 100 µM throughout.

On to `O=[N+]([O-])c1cccc([N+](=O)[O-])c1Cl`, for which the TGI in the assay on SNB-19 CNS stood at 33.2 µM; in the assay on TK-10 renal it was 41.3 µM; with NCI-H23 lung, 40.5 µM; in the assay with OVCAR-4 ovarian, 45.6 µM; in the assay on HCT-15 colon, 31.6 µM; with IGROV1 ovarian, 30.6 µM. Besides, the TGI with UO-31 renal is 2.86 µM; in the assay with SR leukemia, over 100 µM.

On to `C/C=C\C(CC(=O)NCCc1c[nH]c2ccccc12)CC(=O)OC` (centres undefined), for which the TGI in the assay on SNB-19 CNS, in the assay on TK-10 renal, in the assay on NCI-H23 lung, in the assay on OVCAR-4 ovarian, in the assay on MDA-N and in the assay on SK-OV-3 ovarian was over 100 µM in each case. Also, the TGI in the assay with HCC-2998 colon, in the assay with HCT-15 colon, with IGROV1 ovarian and in the assay with UO-31 renal was over 100 µM throughout.

In the case of `OCC1c2ccccc2-n2nc(-c3ccccc3)c(O)c21` (centres undefined), the TGI in the assay with SNB-19 CNS was over 100 µM; in the assay on TK-10 renal, 34.1 µM; in the assay with NCI-H23 lung, over 100 µM; in the assay with OVCAR-4 ovarian, over 100 µM; with MDA-N, over 100 µM; in the assay with SK-OV-3 ovarian it was over 100 µM. The TGI with HCC-2998 colon is 44.8 µM; with HCT-15 colon, 29.2 µM; with IGROV1 ovarian it was over 100 µM; with UO-31 renal it was 92.4 µM.

Regarding `CCn1c(O)c(C(=O)NC(C)c2ccc([N+](=O)[O-])cc2)c(=O)n(CC)c1=S` (centres undefined), the TGI was found to be 10.8 µM in the assay on SNB-19 CNS; 17 µM in the assay on TK-10 renal; 4.63 µM with NCI-H23 lung; 12.1 µM with OVCAR-4 ovarian; 13.6 µM in the assay on MDA-N; 7.38 µM in the assay on SK-OV-3 ovarian. The TGI is 10.7 µM with HCC-2998 colon, 10.7 µM in the assay on HCT-15 colon, 11.4 µM in the assay on IGROV1 ovarian and 5.58 µM with UO-31 renal.

In the case of `O=c1oc2ccccc2c(O)c1C(c1ccc(O)cc1)c1c(O)c2ccccc2oc1=O`, the TGI in the assay on SNB-19 CNS, in the assay with TK-10 renal, in the assay with NCI-H23 lung, in the assay with OVCAR-4 ovarian, in the assay with MDA-N and in the assay with HCC-2998 colon was over 100 µM in each case. In addition, the TGI with HCT-15 colon, with IGROV1 ovarian and in the assay with UO-31 renal was over 100 µM each time.
